Measurements reported in US20230382911A1 (Hoffmann-La Roche Inc., priority 2021, published 2023).

The compounds below were run against Recombinant human Mat2a (Homo sapiens (Human), UniProt P31153) (assay: Determination of Mat2A activity: 384 well format absorbance-based Mat2A inhibition assay). Settings: 12.5 nM Mat2A, 100 μM ATP and Methionine, 2% DMSO, 120 minutes at RT, Biomol Green, absorbance at 635 nm.
Assay type: biochemical
Protocol: Determination of Mat2A Activity
Measurement of Mat2A inhibition is performed in 384 well format absorbance-based assay.
Recombinant human Mat2a (12.5 nM) and serial diluted compounds in DMSO (range of concentrations from 10 μM to […]) or controls (DMSO) are incubated for 15 minutes at room temperature (RT) in assay buffer containing 50 mM HEPES pH 7.5, 50 mM KCl, 50 mM MgCl2, 0.01% Tween 20 and 10 mM DTT. The reaction is initiated by the addition of the combined substrates ATP and Methionine, each at a final concentration of 100 μM. Final assay condition are 12.5 nM Mat2A, 100 μM ATP and Methionine Substrates and 2% DMSO. After 120 minutes of incubation at RT, the reaction is stopped by the addition of Biomol Green. The absorbance signal is measured at λ=635 nm with a multiplate reader (BMG Pherastar reader or equivalent) after 30 min of equilibration at RT.

Sequence of Recombinant human Mat2a (P31153 whole entry): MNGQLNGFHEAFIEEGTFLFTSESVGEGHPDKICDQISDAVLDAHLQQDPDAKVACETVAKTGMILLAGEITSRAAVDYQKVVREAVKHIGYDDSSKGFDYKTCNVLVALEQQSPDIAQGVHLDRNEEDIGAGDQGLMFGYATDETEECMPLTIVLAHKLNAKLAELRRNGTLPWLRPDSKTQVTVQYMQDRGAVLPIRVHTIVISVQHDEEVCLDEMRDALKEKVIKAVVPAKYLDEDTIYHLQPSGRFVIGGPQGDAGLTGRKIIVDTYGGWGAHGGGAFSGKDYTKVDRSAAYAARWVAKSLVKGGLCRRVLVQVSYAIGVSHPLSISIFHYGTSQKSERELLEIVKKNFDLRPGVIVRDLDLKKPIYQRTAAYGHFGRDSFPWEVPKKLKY

SMILES	IC50 [nM]
COc1ccccc1C(=O)n1nc(N)c2ccc(C3=CCOC3)nc21 [Example 35, [3-amino-6-(2,5-dihydrofuran-3-yl)pyrazolo[3,4-b]pyridin-1-yl]-(2-methoxyphenyl)methanone]	17
C[C@H]1OCC[C@H]1C(=O)n1nc(N)c2ccc(C3CC3)nc21 (racemic) [Example 65, (3-amino-6-cyclopropyl-1H-pyrazolo[3,4-b]pyridin-1-yl)((2SR,3RS)-2-methyltetrahydrofuran-3-methyloxolane-2-yl)methanone]	36
Cc1nccnc1C(=O)n1nc(N)c2ccc(C3CC3)nc21 [Example 74, (3-amino-6-cyclopropyl-1H-pyrazolo[3,4-b]pyridin-1-yl)(3-methylpyrazin-2-yl)methanone]	220
Nc1nn(C(=O)c2cccnc2C(F)(F)F)c2nc(C3CC3)ccc12 [Example 77, (3-amino-6-cyclopropyl-1H-pyrazolo[3,4-b]pyridin-1-yl)(2-(trifluoromethyl)pyridin-3-yl)methanone]	31
Nc1nn(C(=O)C2CCCOC2)c2nc(C3CC3)ccc12 (stereo not drawn) [Example 73, (3-amino-6-cyclopropyl-1H-cyclopropyl-1H-pyrazolo[3,4-b]pyridin-1-yl)(tetrahydro-2H-pyran-3-yl)methanone]	180
COc1ccccc1C(=O)n1nc(N)c2ccc(-c3ccccc3)nc21 [Example 1, (3-amino-6-phenyl-1H-pyrazolo[3,4-b]pyridin-1-yl)(2-methoxyphenyl)methanone]	92
COc1ccccc1C(=O)n1nc(N)c2ccc(C(F)(F)F)nc21 [Example 26]	120
Nc1nn(C(=O)C2CCNC(=O)C2)c2nc(C3CC3)ccc12 (stereo not drawn) [Example 69, 4-(3-amino-6-cyclopropyl-1H-pyrazolo[3,4-b]pyridine-1-carbonyl)piperidin-2-one]	79
Nc1nn(C(=O)C2CCCCC2)c2nc(C3CC3)ccc12 [Example 56, (3-amino-6-cyclopropyl-1H-pyrazolo[3,4-b]pyridin-1-yl)(cyclohexyl)methanone]	430
COc1ccccc1C(=O)n1nc(N)c2ccc(CC(C)C)nc21 [Example 2, (3-amino-6-isobutyl-1H-pyrazolo[3,4-b]pyridin-1-yl)(2-methoxyphenyl)methanone]	110
Nc1nn(C(=O)c2ccccc2Cl)c2nc(N3CCCC3)c(F)cc12 [Example 12, (3-amino-5-fluoro-6-(pyrrolidin-1-yl)-1H-pyrazolo[3,4-b]pyridin-1-yl)(2-chlorophenyl)methanone]	140
COc1ccccc1C(=O)n1nc(N)c2ccc(C3CC3(F)F)nc21 (stereo not drawn) [Example 40, (3-amino-6-(2,2-difluorocyclopropyl)-1H-pyrazolo[3,4-b]pyridin-1-yl)(2-methoxyphenyl)methanone]	32
COc1ccccc1C(=O)n1nc(N)c2ccc(N3C[C@@H]4CC[C@H]3C4)nc21 (racemic) [Example 51, [3-amino-6-[(1RS,4SR)-3-azabicyclo[2.2.1]heptan-3-yl]pyrazolo[3,4-b]pyridin-1-yl]-(2-methoxyphenyl)methanone]	170
COc1ccccc1C(=O)n1nc(N)c2cc(F)c(-c3ccccc3)nc21 [Example 10, (3-amino-5-fluoro-6-phenyl-1H-pyrazolo[3,4-b]pyridin-1-yl)(2-methoxyphenyl)methanone]	280
Cc1ccccc1C(=O)n1nc(N)c2ccc(C3CCCC3)nc21 [Example 29, (3-amino-6-cyclopentylpyrazolo[3,4-b]pyridin-1-yl)-(2-methylphenyl)methanone]	480
Nc1nn(C(=O)c2cccc3c2OCO3)c2nc(C3CC3)ccc12 [Example 19, (3-amino-6-cyclopropylpyrazolo[3,4-b]pyridin-1-yl)-(1,3-benzodioxol-4-yl)methanone]	410
COc1ccccc1C(=O)n1nc(N)c2ccc(N3CCC3)nc21 [Example 24, (3-amino-6-(azetidin-1-yl)-1H-pyrazolo[3,4-b]pyridin-1-yl)(2-methoxyphenyl)methanone]	300
Cc1ncsc1C(=O)n1nc(N)c2ccc(C3CC3)nc21 [Example 63, (3-amino-6-cyclopropyl-1H-pyrazolo[3,4-b]pyridin-1-yl)(4-methylthiazol-5-yl)methanone]	130

SMILES	IC50 [nM]
COc1ccccc1C(=O)n1nc(N)c2ccc([C@H]3C[C@@H]3F)nc21 (racemic) [Example 39, (3-amino-6-((1RS,2SR)-2-fluorocyclopropyl)-1H-pyrazolo[3,4-b]pyridin-1-yl)(2-methoxyphenyl)methanone]	64
Cc1nscc1C(=O)n1nc(N)c2ccc(C3CC3)nc21 [Example 79, (3-amino-6-cyclopropyl-1H-pyrazolo[3,4-b]pyridin-1-yl)(3-methylisothiazol-4-yl)methanone]	150
COc1ccccc1C(=O)n1nc(N)c2ccc(C(C)(C)C)nc21 [Example 15, (3-amino-6-(tert-butyl)-1H-pyrazolo[3,4-b]pyridin-1-yl)(2-methoxyphenyl)methanone]	99
C[C@H]1C(=O)NCC[C@H]1C(=O)n1nc(N)c2ccc(C3CC3)nc21 (racemic) [Example 59, (3RS,4RS)-4-(3-amino-6-cyclopropylpyrazolo[3,4-b]pyridine-1-carbonyl)-3-methylpiperidin-2-one]	33
CC1OCCC1C(=O)n1nc(N)c2ccc(C3CC3)nc21 (stereo not drawn) [Example 64, (3-amino-6-cyclopropyl-1H-pyrazolo[3,4-b]pyridin-1-yl)(2-methyltetrahydrofuran-3-yl)methanone]	41
COc1c(C)cccc1C(=O)n1nc(N)c2ccc(C3CC3)nc21 [Example 70, (3-amino-6-cyclopropyl-1H-pyrazolo[3,4-b]pyridin-1-yl)(2-methoxy-3-methylphenyl)methanone]	180
Cc1c(C#N)cccc1C(=O)n1nc(N)c2ccc(C3CC3)nc21 [Example 66, 3-(3-amino-6-cyclopropyl-1H-pyrazolo[3,4-b]pyridine-1-carbonyl)-2-methylbenzonitrile]	54
Cc1nnccc1C(=O)n1nc(N)c2ccc(C3CC3)nc21 [Example 78, (3-amino-6-cyclopropyl-1H-pyrazolo[3,4-b]pyridin-1-yl)(3-methylpyridazin-4-yl)methanone]	200
CC1OCCC1C(=O)n1nc(N)c2ccc(C3CC3(F)F)nc21 (stereo not drawn) [Example 50, (3-amino-6-(2,2-difluorocyclopropyl)-1H-pyrazolo[3,4-b]pyridin-1-yl)(2-methyltetrahydrofuran-3-yl)methanone]	160
COc1c(F)cccc1C(=O)n1nc(N)c2ccc(C3CC3(F)F)nc21 (stereo not drawn) [Example 45, (3-amino-6-(2,2-difluorocyclopropyl)-1H-pyrazolo[3,4-b]pyridin-1-yl)(3-fluoro-2-methoxyphenyl)methanone]	91
COc1ccccc1C(=O)n1nc(N)c2ccc([C@H]3C[C@@H]3C)nc21 (racemic) [Example 34, (3-amino-6-((1RS,2RS)-2-methylcyclopropyl)-1H-pyridin-3-pyrazolo[3,4-b]pyridin-1-yl)(2-methoxyphenyl)methanone]	29
COc1ccccc1C(=O)n1nc(N)c2cc(F)c(N3CC(F)(F)C3)nc21 [Example 14, (3-amino-6-(3,3-difluoroazetidin-1-yl)-5-fluoro-1H-pyrazolo[3,4-b]pyridin-1-yl)(2-methoxyphenyl)methanone]	95
COc1c(F)cccc1C(=O)n1nc(N)c2ccc(C3=CCOC3)nc21 [Example 47, [3-amino-6-(2,5-dihydrofuran-3-yl)pyrazolo[3,4-b]pyridin-1-yl]-(3-fluoro-2-methoxyphenyl)methanone]	25
COc1ccccc1C(=O)n1nc(N)c2ccc(C3CCC3)nc21 [Example 32]	59
COc1ccccc1C(=O)n1nc(N)c2ccc([C@@H]3C[C@H]3C(F)(F)F)nc21 (racemic) [Example 42, [3-amino-6-[(1RS,2RS)-2-(trifluoromethyl)cyclopropyl]pyrazolo[3,4-b]pyridin-1-yl]-(2-methoxyphenyl)methanone]	200
Nc1nn(C(=O)c2ccccc2Cl)c2nc(N3CCCC3)ncc12 [Example 18, (3-amino-6-(pyrrolidin-1-yl)-1H-pyrazolo[3,4-d]pyrimidin-1-yl)(2-chlorophenyl)methanone]	350
Cc1ccccc1C(=O)n1nc(N)c2ccc(N3CC(F)(F)C3)nc21 [Example 28, (3-amino-6-(3,3-difluoroazetidin-1-yl)-1H-pyrazolo[3,4-b]pyridin-1-yl)(o-tolyl)methanone]	340
Cc1ccccc1C(=O)n1nc(N)c2cc(Cl)c(C3CC3)nc21 [Example 9]	390
